Results on 30 molecules are retold here after patent US7557213B2, “Substituted quinolones and methods of use” (ChemoCentryx, Inc., priority 2005, dated 2009).

Some results are limits rather than exact numbers.

The target in this experiment is T1, CCXCKR2 receptor (Homo sapiens, UniProt P25106).
T1 construct: expressed in transfected cells; host or cells: MDA-MB-435S transfected with pcDNA3.1(+)-hRDC1 and/or MCF-7 (endogenous receptor)
T1 sequence (P25106 whole entry): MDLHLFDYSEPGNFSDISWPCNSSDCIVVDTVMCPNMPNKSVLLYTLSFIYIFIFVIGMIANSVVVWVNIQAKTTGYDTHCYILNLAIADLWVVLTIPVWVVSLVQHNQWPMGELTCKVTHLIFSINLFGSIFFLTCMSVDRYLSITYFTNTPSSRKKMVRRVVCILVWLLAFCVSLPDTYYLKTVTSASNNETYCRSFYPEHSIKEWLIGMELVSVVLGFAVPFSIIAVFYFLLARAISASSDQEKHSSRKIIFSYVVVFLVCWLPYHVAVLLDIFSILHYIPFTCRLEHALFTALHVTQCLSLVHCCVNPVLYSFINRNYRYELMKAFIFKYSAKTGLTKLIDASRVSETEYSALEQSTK
Nature of the experiment: Displacement of 125I-labeled SDF-1 from the CCXCKR2 receptor on MCF-7 and/or CCXCKR2-transfected MDA-MB-435S cells (radioligand binding, filtration). To be noted: 125I SDF-1, 3 hr at 4° C., MCF-7 and/or MDA-MB-435S cells; read-out: Activity (concentration displacing at least 50% of the SDF-1 from the CCXCKR2 receptor). Background: Loss of bound radioactivity is the signal in a displacement assay; it reports binding, not function.
Regarding `Cc1ccc(C(=O)c2cn(Cc3cccc(Br)n3)c3ccccc3c2=O)nc1` [Example 151], the IC50 is less than 100 nM.
For `Cc1ncc(C(=O)c2cn(Cc3cccc(Br)n3)c3ccccc3c2=O)n1C` [Example 152], the IC50 was 500 to 20000 nM.
As for `CNCc1ccc(C(=O)c2cn(Cc3cccc(Br)n3)c3ccccc3c2=O)cc1` [Example 153], the figure is 100 to 500 nM.
For `CCc1ccc(C(=O)c2cn(Cc3cccc(Br)n3)c3ccccc3c2=O)cn1` [Example 154] the value was less than 100 nM.
For `COC(=O)c1ccccc1C(=O)c1cn(Cc2cccc(Br)n2)c2ccccc2c1=O` [Example 155] the value was less than 100 nM; for `COc1ccc(C(=O)c2cn(Cc3cccc(C)n3)c3ccccc3c2=O)cc1C` [Example 156], less than 100 nM; for `Cc1cccc(Cn2cc(C(=O)c3ccc4c(c3)OCCO4)c(=O)c3ccccc32)n1` [Example 157], less than 100 nM.
`Cc1cccc(Cn2cc(C(=O)c3ccc(N(C)C)cc3)c(=O)c3ccccc32)n1` [Example 158]: the IC50 is less than 100 nM.
For `Cc1ccc(C(=O)c2cn(Cc3cccc(Br)n3)c3nc(C)c(C)cc3c2=O)cc1C` [Example 159] the value was less than 100 nM; for `COc1ccc(C(=O)c2cn(Cc3cccc(Br)n3)c3ncccc3c2=O)cc1C` [Example 160], less than 100 nM; for `COc1ccc(C(=O)c2cn(Cc3cccc(C)n3)c3ncccc3c2=O)cc1` [Example 161], less than 100 nM.
For `COc1ccc(C(=O)c2cn(Cc3cccc(C)n3)c3ncccc3c2=O)cc1C` [Example 162], the IC50 is less than 100 nM.
With `COc1ccc(C(=O)c2cn(Cc3cccc(C)n3)c3ncccc3c2=O)cc1F` [Example 163], the IC50 is less than 100 nM.
For `Cc1cccc(Cn2cc(C(=O)c3ccc4c(c3)OCCO4)c(=O)c3cccnc32)n1` [Example 164] the value was less than 100 nM; for `Cc1cccc(Cn2cc(C(=O)c3ccc(C(C)C)cc3)c(=O)c3cccnc32)n1` [Example 165], less than 100 nM; for `COc1cc(C(=O)c2cn(Cc3cccc(C)n3)c3ncccc3c2=O)ccc1Cl` [Example 166], less than 100 nM.
In the case of `O=C(c1ccccc1-c1cnco1)c1cn(Cc2cccc(Br)n2)c2ccccc2c1=O` [Example 167], the IC50 lay in the range of 500 to 20000 nM.
For `CN(C)C(=O)c1ccccc1C(=O)c1cn(Cc2cccc(Br)n2)c2ccccc2c1=O` [Example 168] the value was less than 100 nM; for `CNC(=O)c1ccccc1C(=O)c1cn(Cc2cccc(Br)n2)c2ccccc2c1=O` [Example 169], 500 to 20000 nM; for `O=C(NC1CC1)c1ccccc1C(=O)c1cn(Cc2cccc(Br)n2)c2ccccc2c1=O` [Example 170], 500 to 20000 nM.
For the molecule `O=C(c1ccccc1C(=O)N1CCC1)c1cn(Cc2cccc(Br)n2)c2ccccc2c1=O` [Example 171], the IC50 was less than 100 nM.
As for `COc1cc(C(=O)c2cn(Cc3cccc(Br)n3)c3ncccc3c2=O)ccc1Cl` [Example 172], the figure is less than 100 nM.
For `COc1ccc(C(=O)c2cn(Cc3cccc(Br)n3)c3ncccc3c2=O)cc1` [Example 173] the value was less than 100 nM; for `COc1ccc(C(=O)c2cn(Cc3cccc(Br)n3)c3ncccc3c2=O)cc1F` [Example 174], less than 100 nM; for `O=C(c1ccc2c(c1)OCCO2)c1cn(Cc2cccc(Br)n2)c2ncccc2c1=O` [Example 175], less than 100 nM.
With `Cc1cccc(Cn2cc(C(=O)c3ccccc3Br)c(=O)c3ccccc32)n1` [Example 176], the IC50 is less than 100 nM.
As for `Cc1cccc(Cn2cc(C(=O)c3ccc(C(F)(F)F)nc3)c(=O)c3ccccc32)n1` [Example 177], the figure is 100 to 500 nM; as for `COc1ccc(C(=O)c2cn(Cc3cccc(Br)n3)c3ccccc3c2=O)c(C)c1` [Example 178], less than 100 nM; as for `O=C(c1ccc(Cl)c(F)c1)c1cn(Cc2cccc(Br)n2)c2ccccc2c1=O` [Example 179], less than 100 nM.
As for `CN(C)C(=O)c1cccc(C(=O)c2cn(Cc3cccc(Br)n3)c3ccccc3c2=O)c1` [Example 180], the figure is less than 100 nM.
